# Experimental data reported in patent US7985424B2, “Dendritic polymers with enhanced amplification and interior functionality” (Dendritic Nanotechnologies Inc., priority 2004, dated 2011).
# Legend:
# [1] = Proton relaxivity analysis (variable field T1-T2 analyzer); format: physicochemical; settings: Table IV; field strength varied from 1-64 MHz
# Experimental: Relaxivity analysis was performed using a variable field T1-T2 analyzer. The field strength was varied from 1-64 MHz.
# The Gd(III) content of the solutions was determined on a sequential, radially viewed Varian™ Liberty Series II ICPOES inductively coupled plasma optical emission spectrophotometer (Anderson Analytical, TX). Relaxivity analysis was performed using a variable field T1-T2 analyzer (University of Pittsburgh). The field strength was varied from 1-64 MHz. […] Relaxivity values for DTPA-Gd(III)-encapsulated dendrimers were similar to free DTPA-Gd(III).
# [2] = test system: HEK 293 cells; test: Membrane permeation of FITC-conjugated PEHAM dendrimer (fluorescence microscopy); format: cell-based, human; settings: monitored at 2, 5 and 24 hours, FIG. 13
# Experimental: Fluorescence microscopy and phase contrast microscopy studies were performed using a Nikon Diaphot™ TMD microscope equipped with Nikon™ TMD-EF for fluorescence, along with a Nikon™ CoolPix 990 digital camera to capture the results.
# HEK 293 cells were plated at 40% confluency in a 96-well plate (Becton Dickinson) in MEM (Fisher), containing 10% FBS (ISC BioExpress). […] Control wells included G=1 PEHAM dendrimer and FITC dye alone, at equivalent concentrations. The cells were incubated with the conjugate for 24 hours, with monitoring via fluorescence microscopy at 2, 5, and 24 hours. Prior to examination under the microscope, the cells to be analyzed were rinsed 2 times with PBS.
Compound,Relaxivity (r1) [1] [mM⁻¹ s⁻¹],membrane permeation / intracellular fluorescence [2]
"O=C([O-])CN(CCN(CC(=O)[O-])CC(=O)O)CCN(CC(=O)[O-])CC(=O)O.[Gd+3] [DTPA-Gd, diethylenetriaminepentaacetic acid, gadolinium(III)]",4.2,–
fluorescein isothiocyanate [FITC],–,no intracellular fluorescence
